Data on 18 compounds can be found in US20030109523A1, “Bicyclic antagonists selective for the alphavbeta3 integrin” (Wyeth, priority 1999, published 2003).

Data set [1] addresses T1, αIIbβ3 integrin (Homo sapiens, UniProt P05106+P08514).
T1 construct: Human Platelets: Platelet-enriched plasma was obtained commercially from a donor pool; from tissue; host or cells: human platelet-rich plasma from a commercial donor pool
Description: ADP-Induced Platelet Aggregation. Format: cell-based. The following applies: Table VII; for remaining activity at 200 µM: percent of maximal aggregation; for IC50: ADP 20 uM, human platelets, read-out: Platelet Aggregation αIIbβ3 IC50. How it is done: Measurement of the Effect of Compounds on ADP-Induced Platelet Aggregation
Measuring the effect of compounds on ADP-induced platelet aggregation mediated by a fibrinogen-αIIbβ3 integrin interaction.
Human Platelets: Platelet-enriched plasma was obtained commercially from a donor pool. The plasma was tested prior to shipment and found to be negative for HIV, HCV and Hepatitis B. Platelet-rich plasma (PRP) was obtained by diluting plasma to an approximate final concentration of 3×10(6) platelets per mL in platelet poor plasma (PPP). PPP was the supernatant of a lowspeed centrifugation of plasma.
Adenosine diphosphate (ADP): ADP was obtained commercially and diluted to 1 mM (stock solution) in distilled, deionized water (ddH2O).
Incubation: PRP and PPP were prewarmed in a water bath at 37° C. […] PRP plus sample compound in a final volume of 500 uL was added to a pre-warmed cuvette in a ChronoLog aggregometer. A control containing PRP and 5 uL of vehicle was treated similarly to the test cuvette; final vehicle concentration was 1%. The two cuvettes were incubated with stirring (1000 rpm) at 37° C. for 5 minutes. Five hundred microliters of PPP was used as a reference (100% aggregation).
Aggregation: To begin the test, ADP was added yielding a final concentration of 20 uM to both samples (plus and minus sample compound). Light transmittance was monitored continuously and compared to the reference cuvette. After five minutes, the test was terminated and the slope and maximal amplitude of the resulting aggregation plot was calculated by the aggregometer.
The percent of maximal aggregation is the ratio of the maximal aggregations of the sample cuvette to the control multiplied by 100 (% Max) and reported as the mean+−standard deviation.

Data set [2] deals with T2, Vitronectin Receptor (αVβ3) (Homo sapiens, UniProt P05106+P06756).
T2 construct: expressed in transfected cells; host or cells: 512P5 cells (plasma membrane preparation)
Description: Vitronectin Receptor (αVβ3) Binding Test Procedure. The following applies: for IC50: read-out: (αVβ3) IC50 RECEPTOR BINDING.

Data set [3] concerns osteoclasts. Description: Osteoclast Bone Pitting. In kind it is cell-based, rat. How it is done:
Osteoclast Bone Pitting The test procedure was conducted as described by R. J. Murrills and D. W. […] At this pH the adherent osteoclasts excavate an adequate number of resorption pits for assay purposes. Slices were fixed in 2.5% glutaraldehyde and osteoclasts counted following tartrate-resistant acid phosphatase staining. […] All cells were stripped from the slice by sonication on 0.25M NH4OH and the resorption pits formed by the osteoclasts during the experiment stained with toluidine blue. Resorption pits were quantified by manually counting. The experiments were conducted according to a block design with osteoclasts from each animal exposed to each treatment. Three replicate slices were used per treatment per animal, such that a total of 96 slices were examined for an experiment involving four animals and eight treatments (including control). Several parameters were recorded on a “per slice” basis: number of pits, number of osteoclasts, number of pits per osteoclast, number of fibroblast-like bone cells. SAS or JMP statistical software were used for statistical analysis. […] IC50s were calculated using dose-response curves.

Data set [4] concerns the target T3, αVβ3 integrin (Homo sapiens, UniProt P05106+P06756).
T3 construct: αVβ3-expressing cell lines are maintained by standard tissue culture techniques; endogenous in cells; host or cells: αVβ3-expressing cell lines
Description: Osteopontin-αVβ3 Cell Attachment Test Procedure. Format: cell-based. The following applies: for IC50: attachment of cells to osteopontin, read-out: (αVβ3) IC50 CELL ATTACHMENT
How it is done: Osteopontin-αVβ3 Cell Attachment Test Procedure
Measuring the effect of compounds on the RGD-dependent attachment of cells to osteopontin mediated by the αVβ3 integrin.
Following incubation the wells were aspirated and washed once with D-PBS; plates can either be used immediately or stored for up to 1 week at 4° C. Prior to assay, the wells were blocked with 1% bovine serum albumin (BSA) in cell suspension media for 1 hour at 37° C. Following the blocking period, wells were aspirated and washed once with D-PBS.
αVβ3-expressing cell lines are maintained by standard tissue culture techniques. […] The cells were pelleted by low-speed centrifugation and washed three times with 0.5 mg/mL trypsin inhibitor in D-PBS (Sigma). The final cell pellet was resuspended in cell suspension media at a concentration of 10^6 cells/mL.
Incubation: 100 μL of diluted test compound was added to osteopontin-coated wells (in triplicate) followed by 100 μL of cell suspension; background cell attachment was determined in uncoated wells. The plate was incubated at 25° C. in a humidified air atmosphere for 1.5 hours. Following the incubation period, the wells were gently aspirated and washed once with D-PBS.
Cell Number Detection: The number of cells attached was determined by an MTT dye conversion assay (Promega) according to the manufacturer's instructions. Briefly, MTT dye was diluted in cell suspension media (15:85) and 100 μL was added to each well. […] The assay plates were covered and incubated at 37° C. in a humidified air atmosphere overnight.
The individual well optical density was expressed as a percentage of the maximal attachment (% Max) wells minus background attachment, and reported as the mean ±standard deviation.

Where [5] appears, read: % Max = percentage of the specific binding, read-out: (αVβ3) RECEPTOR BINDING, % @ concentration.
The mark [6] stands for this setting: % of maximal attachment, read-out: (αVβ3) CELL ATTACHMENT, % @ concentration.

SMILES strings stand for the structures. Counter-ions that a name gives are not always drawn.

T1 sequence (P08514 32-887 limits assumed): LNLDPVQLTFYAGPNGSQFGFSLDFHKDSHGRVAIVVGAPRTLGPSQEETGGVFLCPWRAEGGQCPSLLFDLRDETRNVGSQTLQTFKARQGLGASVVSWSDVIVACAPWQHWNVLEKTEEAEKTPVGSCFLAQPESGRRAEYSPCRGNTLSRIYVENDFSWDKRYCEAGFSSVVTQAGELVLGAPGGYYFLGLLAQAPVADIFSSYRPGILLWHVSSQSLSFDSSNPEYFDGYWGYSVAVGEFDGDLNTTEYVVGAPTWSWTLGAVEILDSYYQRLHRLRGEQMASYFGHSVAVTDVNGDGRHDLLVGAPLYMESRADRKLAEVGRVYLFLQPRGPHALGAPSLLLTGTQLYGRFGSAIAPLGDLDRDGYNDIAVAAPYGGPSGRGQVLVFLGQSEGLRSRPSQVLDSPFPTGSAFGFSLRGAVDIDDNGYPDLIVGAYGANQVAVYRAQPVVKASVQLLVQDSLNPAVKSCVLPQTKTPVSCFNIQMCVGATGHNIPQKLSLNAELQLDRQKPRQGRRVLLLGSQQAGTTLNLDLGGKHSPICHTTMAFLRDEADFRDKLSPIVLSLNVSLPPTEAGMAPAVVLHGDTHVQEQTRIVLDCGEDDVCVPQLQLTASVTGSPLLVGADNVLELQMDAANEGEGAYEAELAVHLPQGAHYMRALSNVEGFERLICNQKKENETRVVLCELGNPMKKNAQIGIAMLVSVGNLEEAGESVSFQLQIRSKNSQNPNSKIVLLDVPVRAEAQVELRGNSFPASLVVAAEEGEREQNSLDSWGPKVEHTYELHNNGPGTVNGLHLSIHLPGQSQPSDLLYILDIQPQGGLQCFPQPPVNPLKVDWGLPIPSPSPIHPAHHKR
T1 sequence (P08514 891-1039 partner limits assumed): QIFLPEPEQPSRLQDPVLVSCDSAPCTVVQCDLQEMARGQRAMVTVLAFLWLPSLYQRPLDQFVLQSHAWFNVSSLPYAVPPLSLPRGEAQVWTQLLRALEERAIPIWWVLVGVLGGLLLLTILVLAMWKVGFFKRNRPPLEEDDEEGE
T1 sequence (P05106 27-788): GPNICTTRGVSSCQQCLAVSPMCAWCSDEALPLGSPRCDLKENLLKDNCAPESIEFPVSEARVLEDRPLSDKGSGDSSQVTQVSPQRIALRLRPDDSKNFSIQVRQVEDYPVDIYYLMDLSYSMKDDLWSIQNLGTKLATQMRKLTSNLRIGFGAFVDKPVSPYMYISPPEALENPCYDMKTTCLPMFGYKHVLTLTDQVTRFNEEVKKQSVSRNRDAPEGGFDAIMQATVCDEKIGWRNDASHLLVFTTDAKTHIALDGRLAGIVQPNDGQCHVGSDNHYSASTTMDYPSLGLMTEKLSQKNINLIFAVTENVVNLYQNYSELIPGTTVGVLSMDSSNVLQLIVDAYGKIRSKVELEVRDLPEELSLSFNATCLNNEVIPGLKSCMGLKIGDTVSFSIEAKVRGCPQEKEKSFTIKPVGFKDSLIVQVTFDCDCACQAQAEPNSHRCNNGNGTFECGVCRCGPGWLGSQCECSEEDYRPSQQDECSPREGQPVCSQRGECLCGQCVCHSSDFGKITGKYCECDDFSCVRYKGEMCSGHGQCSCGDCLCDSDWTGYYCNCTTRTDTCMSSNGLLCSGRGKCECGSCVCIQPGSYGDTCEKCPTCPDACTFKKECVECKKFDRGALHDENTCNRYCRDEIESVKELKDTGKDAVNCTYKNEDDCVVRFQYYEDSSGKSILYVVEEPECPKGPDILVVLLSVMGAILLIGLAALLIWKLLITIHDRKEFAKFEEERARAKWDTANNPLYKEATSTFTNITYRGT
T2 sequence (P06756 31-889 limits assumed): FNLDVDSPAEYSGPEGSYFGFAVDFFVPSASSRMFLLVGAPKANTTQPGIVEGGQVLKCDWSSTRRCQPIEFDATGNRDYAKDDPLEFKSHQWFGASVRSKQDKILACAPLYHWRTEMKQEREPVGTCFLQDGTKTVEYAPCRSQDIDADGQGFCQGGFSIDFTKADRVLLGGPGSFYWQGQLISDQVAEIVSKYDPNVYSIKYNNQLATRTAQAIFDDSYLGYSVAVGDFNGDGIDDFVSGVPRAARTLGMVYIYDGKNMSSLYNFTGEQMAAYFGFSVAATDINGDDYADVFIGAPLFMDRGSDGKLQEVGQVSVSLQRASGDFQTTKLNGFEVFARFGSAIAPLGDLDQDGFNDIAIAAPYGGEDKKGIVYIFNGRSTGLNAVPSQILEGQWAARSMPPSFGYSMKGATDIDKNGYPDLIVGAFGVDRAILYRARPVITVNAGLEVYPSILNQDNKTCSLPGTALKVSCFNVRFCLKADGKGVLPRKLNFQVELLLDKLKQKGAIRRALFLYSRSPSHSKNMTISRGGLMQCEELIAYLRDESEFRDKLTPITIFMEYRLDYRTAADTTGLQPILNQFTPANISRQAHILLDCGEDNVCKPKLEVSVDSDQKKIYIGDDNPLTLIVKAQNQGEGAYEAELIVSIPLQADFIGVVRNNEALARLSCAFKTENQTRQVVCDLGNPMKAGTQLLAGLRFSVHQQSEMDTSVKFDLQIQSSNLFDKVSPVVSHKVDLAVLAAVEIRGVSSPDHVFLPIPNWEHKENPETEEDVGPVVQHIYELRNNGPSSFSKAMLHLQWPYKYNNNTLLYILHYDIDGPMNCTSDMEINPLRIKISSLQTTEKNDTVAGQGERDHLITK
T2 sequence (P06756 891-1048 partner limits assumed): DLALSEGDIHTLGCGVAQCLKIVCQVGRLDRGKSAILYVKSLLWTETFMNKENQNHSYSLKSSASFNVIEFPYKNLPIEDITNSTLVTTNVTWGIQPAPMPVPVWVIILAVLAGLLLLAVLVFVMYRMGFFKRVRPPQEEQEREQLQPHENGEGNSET
T2 sequence (P05106 27-788): as the sequence (P05106 27-788) above
T3 sequence (P06756 31-889 limits assumed): as the sequence (P06756 31-889 limits assumed) above
T3 sequence (P06756 891-1048 partner limits assumed): as the sequence (P06756 891-1048 partner limits assumed) above
T3 sequence (P05106 27-788): as the sequence (P05106 27-788) above

As to `N=C(N)NCCOc1ccc2cc(CC(=O)O)c(=O)[nH]c2c1` (as salt: trifluoroacetate) [Example 185, [7-(2-Guanidino-ethoxy)-2-oxo-1,2-dihydro-quinolin-3-yl]-acetic Acid], the melting point is 219 to 220 °C.
Same read-out and setting: for `N=C(N)NCCCCOc1ccc2c(c1)CC(CC(=O)O)C(=O)N2` (centres unmarked) (as salt: salt) [Example 229, [6-(4-Guanidino-butoxy)-2-oxo-1,2,3,4-tetrahydro-quinolin-3-yl]-acetic Acid] the value was 170 to 173 °C; for `CCn1c(=O)c(CC(=O)O)cc2ccc(OCCCN)cc21.O=C(O)C(F)(F)F`, 182 to 184 °C; for `N=C(N)NCCOc1ccc2c(c1)CC(CCC(=O)O)C(=O)N2` (centres unmarked) (as salt: salt) [Example 222, 3-[6-(2-Guanidino-ethoxy)-2-oxo-1,2,3,4-tetrahydro-quinolin-3-yl]-propionic Acid], 119 to 122 °C.
Take `N=C(N)NCCNC(=O)c1ccc2c(c1)NC(=O)C(CC(=O)O)C2` (centres unmarked) [Example 200, [7-(2-Guanidino-ethylcarbamoyl)-2-oxo-1,2,3,4-tetrahydro-quinolin-3-yl]-acetic Acid Hydrochloride]: the remaining activity at 200 µM in data set [1] came out at 94%. The remaining activity at 100 µM in data set [2] (@ 100 μM, % Max = percentage of the specific binding, read-out: (αVβ3) RECEPTOR BINDING, % @ concentration) was determined as 31.4%. The inhibition at 254 µM in data set [3] (Rattus norvegicus, Osteoclast, @ 254 μM) amounted to 20%. Further, the IC50 in data set [4] was found to be 145 µM.
`COC(=O)CC1CCc2cc(OCCCNC3=NCCCN3)ccc2C1` (centres unmarked) [Example 215]: the 50% inhibitory concentration (IC50) in data set [1] worked out at 151 µM; in data set [2], 2 µM; in data set [4], 37.4 µM. In addition, the inhibition at 200 µM in data set [3] (Rattus norvegicus, Osteoclast, @ 200 μM) worked out at 90%.
As for `NCCCOc1ccc2c(c1)NC(=O)C(CC(=O)O)C2` (centres unmarked) (as salt: salt) [Example 205, [7-(3-Amino-propoxy)-2-oxo-1,2,3,4-tetrahydro-quinolin-3-yl]-acetic Acid], the melting point lay in the range of 194 to 196 °C.
For `N=C(N)NCCOc1ccc2c(c1)NC(=O)C(CC(=O)O)C2` (centres unmarked) [Example 85, [7-(2-Guanidino-ethoxy)-2-oxo-1,2,3,4-tetrahydro-quinolin-3-yl]-acetic Acid Hydrochloride], in data set [1], the remaining activity at 200 µM was 93.3%. For the same compound, the IC50 in data set [2] came out at 15.7 µM; in data set [4] it was 111 µM. Moreover, in data set [3] (Rattus norvegicus, Osteoclast, @ 273 μM), the inhibition at 273 µM is 33%.
In the case of `N=C(N)NCCCCCOc1cccc2c1NC(=O)C(CC(=O)O)C2` (centres unmarked) [Example 250, [8-(5-Guanidino-pentoxy)-2-oxo-1,2,3,4-tetrahydro-quinolin-3-yl]-acetic Acid], the remaining activity at 200 µM in data set [1] came to 69%. Further, the remaining activity at 30 µM in data set [2] (setting [5]) turned out to be 102%. In addition, in data set [3] (Rattus norvegicus, Osteoclast), the inhibition at 215 µM is -5%. For the same compound, in data set [4] (@ 10 μM, % of maximal attachment, read-out: (αVβ3) CELL ATTACHMENT, % @ concentration), the remaining activity at 10 µM amounted to 90%. Also, the remaining activity at 100 µM in data set [4] (setting [6]) turned out to be 89%.
Turning to `N=C(N)NCCCCCOc1cccc2c1NC(=O)C(CC(=O)O)C2` (centres unmarked) (as salt: salt) [Example 250, [8-(5-Guanidino-pentoxy)-2-oxo-1,2,3,4-tetrahydro-quinolin-3-yl]-acetic Acid], the melting point lay in the range of 126 to 131 °C.
Take `N=C(N)NCCCCOc1ccc2c(c1)CC(CC(=O)O)C(=O)N2` (centres unmarked) [Example 229, [6-(4-Guanidino-butoxy)-2-oxo-1,2,3,4-tetrahydro-quinolin-3-yl]-acetic Acid]: the IC50 in data set [1] was determined as 146 µM. In data set [2] (setting [5]), the remaining activity at 30 µM was 100%. Also, the inhibition at 214 µM in data set [3] (Rattus norvegicus, Osteoclast, @ 214 μM) was 2%. Also, in data set [4] (setting [6]), the remaining activity at 100 µM amounted to 82%.
In the case of `N=C(N)NCCCNC(=O)c1ccc2c(c1)NC(=O)C(CC(=O)O)C2` (centres unmarked) [Example 201, [7-(3-Guanidino-propylcarbamoyl)-2-oxo-1,2,3,4-tetrahydro-quinolin-3-yl]-acetic Acid Hydrochloride], the remaining activity at 200 µM in data set [1] is 85%. Also, the results for the IC50 in data set [2] and in data set [4] were 5.8 µM and 25.4 µM, respectively. For the same compound, the inhibition at 256 µM in data set [3] (Rattus norvegicus, Osteoclast, @ 256 μM) was determined as 45%.
Regarding `N=C(N)NCCCC#Cc1ccc2c(c1)NC(=O)C(CC(=O)O)C2` (centres unmarked) [Example 101, [7-(5-Guanidino-pent-1-ynyl)-2-oxo-1,2,3,4-tetrahydro-quinolin-3-yl]-acetic Acid Trifluoroacetate], the IC50 in data set [1] was 107 µM; in data set [2], 8.9 µM; in data set [4], 11.5 µM. The inhibition at 221 µM in data set [3] (Rattus norvegicus, Osteoclast, @ 221 μM) was determined as 51%.
Compound `NCCOc1ccc2c(c1)NC(=O)C(CC(=O)O)C2` (centres unmarked) [Example 204, [7-(2-Amino-ethoxy)-2-oxo-1,2,3,4-tetrahydro-quinolin-3-yl]-acetic Acid] displayed a melting point of 205 to 208 °C.
As for `N=C(N)NCCOc1ccc2c(c1)CCCC(CC(=O)O)C2` (centres unmarked) [Example 61, [2-(2-Guanidino-ethoxy)-6,7,8,9-tetrahydro-5H-benzocyclohepten-6-yl]-acetic Acid Hydrochloride], the remaining activity at 200 µM in data set [1] amounted to 85.3%. Moreover, the IC50 in data set [2] was 1.7 µM; in data set [4], 62.2 µM. Further, the inhibition at 271 µM in data set [3] (Rattus norvegicus, Osteoclast, @ 271 μM) is 32%.
Regarding `O=C(O)CC1CCc2cc(OCCCNC3=NCCCN3)ccc2C1` (centres unmarked) [Example 214, {6-[3-(1,4,5,6-Tetrahydro-pyrimidin-2-ylamino)-propoxy]-1,2,3,4-tetrahydro-naphthalen-2-yl}-acetic Acid], in data set [1], the remaining activity at 200 µM is 58%. In addition, the IC50 in data set [2] was determined as 0.42 µM; in data set [4] it was 0.479 µM. Also, the inhibition at 19 µM in data set [3] (Rattus norvegicus, Osteoclast, @ 19 μM) was 19%.
Take `N=C(N)NCCCOc1ccc2c(c1)CC(CC(=O)O)CC2.O=C(O)C(F)(F)F` (centres unmarked) [Example 40, [7-(3-Guanidino-propoxy)-1,2,3,4-tetrahydro-napthalen-2-yl]-acetic Acid Trifluoroacetate]: the IC50 amounted to 148 µM in data set [1] and 47 µM in data set [4]. Also, the “(αVβ3) RECEPTOR BINDING, % @ concentration” value in data set [2] came to 130% @30. Further, the “BONE PITTING INHIBITION” value in data set [3] (@ 238 μM) stood at 39%@238.
`N=C(N)NCCCCOc1ccc2[nH]c(=O)c(CC(=O)O)cc2c1` [Example 238, [6-(4-Guanidino-butoxy)-2-oxo-1,2-dihydro-quinolin-3-yl]-acetic Acid Trifluoroacetic Acid Salt]: the remaining activity at 200 µM in data set [1] worked out at 94%. The remaining activity at 30 µM in data set [2] (setting [5]) is 100%. Besides, the inhibition at 215 µM in data set [3] (Rattus norvegicus, Osteoclast) was -20%. Also, the remaining activity at 20 µM in data set [4] (@ 20 μM, % of maximal attachment, read-out: (αVβ3) CELL ATTACHMENT, % @ concentration) stood at 102%. Besides, the remaining activity at 100 µM in data set [4] (setting [6]) came to 97.9%.
